In patent US8927590B2, “Synthesis of pyrrolidine compounds” (Zealand Pharma A/S, priority 2006, dated 2015):
Like-named read-outs stand apart in the source and are kept apart here.

Assay: Dynamic vapor sorption (DVS) at a series of relative humidity conditions
Type: physicochemical
Procedure: In some embodiments, the (2S,4R)-1-(2-aminoacetyl)-4-benzamidopyrrolidine-2-carboxylic acid hydrochloride monohydrate is characterized by dynamic vapor sorption (“DVS”). DVS data were collected using Dynamix Vapor Sorption Apparatus (DVS-1) made by Surface Measurement System Ltd. Samples were analyzed by subjecting them to a series of relative humidity (RH) conditions at 25° C. The relative humidity was scanned from about 0% to about 90%.

Compound	reversible change of mass between 0% RH and 10% RH (DVS, 25° C., 0% RH to 10% RH (FIG. 6))	mass between 10% RH and about 70% RH (DVS, 25° C., 10% RH to about 70% RH (FIG. 6))	stability of the solid form to changes in humidity (DVS conclusion) (DVS, 25° C., RH cycled about 0% to about 90%)	reversible mass change between about 70% RH and 90% RH (DVS, 25° C., about 70% RH to 90% RH (FIG. 6)) [%]	stability of the solid form to changes in humidity (DVS conclusion)	increase in mass when relative humidity increased from 0% RH to 90% RH (DVS, 25° C., first cycle, 0 to about 1200 min (FIG. 7)) [%]
Cl.NCC(=O)N1C[C@H](NC(=O)c2ccccc2)C[C@H]1C(=O)O.O [(2S,4R)-1-(2-aminoacetyl)-4-benzamidopyrrolidine-2-carboxylic acid hydrochloride monohydrate]	about 1.5%	relatively stable mass	sorbed water is reversibly lost and does not appear to adversely affect the integrity of the crystalline form	~2.5		
Cl.NCC(=O)N1C[C@H](NC(=O)c2ccccc2)C[C@H]1C(=O)O [(2S,4R)-1-(2-Aminoacetyl)-4-benzamidopyrrolidine-2-carboxylic acid hydrochloride]					not stable to environmental changes in humidity	21.7
